From PMC8998978, “Toward a Treatment of Cancer: Design and In Vitro/In Vivo Evaluation of Uncharged Pyrazoline Derivatives as a Series of Novel SHP2 Inhibitors” (International Journal of Molecular Sciences, 2022)

Experiment: Acute toxicity assay
Type: in vivo
Conditions: for Mortality: 14 days observation
Procedure: In acute toxicity assay, 18 female Kunming mice (Jinan Pengyue Experimental Animal Breeding Co., Ltd., Jinan, China), 18–22 g of weight, were used. The mice were randomly divided into three groups (n = 6), and treated with vehicle (0.5% CMC-Na solution) or 4o (300, 2000 mg/kg) by gavage once. The body weight, toxicity effect, general behavior and mortality of mice were monitored within 14 days after 4o treatment. In subacute toxicity assay, 10 male and 10 female Kunming mice (Jinan Pengyue Experimental Animal Breeding Co., Ltd., Jinan, China), 18–22 g of weight, were used. The mice were randomly divided into two groups with 5 males and 5 females, and were orally treated with vehicle (0.5% CMC-Na solution) or 4o (1000 mg/kg) once a day for 28 days. […]. After 28 days of treatment, the mice were anaesthetized with isoflurane and killed by decapitation. The heart, liver, spleen and kidney tissues were collected, and histologically analyzed by H&E staining.

Question: With `CCOc1ccc(Oc2ccc(C3=NN(C4=NC(=O)CS4)C(c4cc(O)c(O)c(Br)c4Br)C3)cc2)cc1` (centres unmarked) [Compound 4o, 2-(5-(2,3-dibromo-4,5-dihydroxyphenyl)-3-(4-(4-ethoxyphenoxy)phenyl)-4,5-dihydro-1H-pyrazol-1-yl)thiazol-4(5H)-one] as the compound, how does the “Body Weight (g) Day 0” value (300 mg/kg single oral dose) read?
Answer: The value was 24.41 ± 0.64 g.

Question: And the “Body Weight (g) Day 7” value (300 mg/kg single oral dose)?
Answer: Its value is 28.78 ± 0.78 g.

Question: And the “Body Weight (g) Day 14” value (300 mg/kg single oral dose)?
Answer: Its value is 30.75 ± 0.99 g.

Question: And the Mortality (300 mg/kg single oral dose)?
Answer: The Mortality was 0/6.

Question: And the “Body Weight (g) Day 0” value (2000 mg/kg single oral dose)?
Answer: Its value is 25.19 ± 1.45 g.

Question: And the “Body Weight (g) Day 7” value (2000 mg/kg single oral dose)?
Answer: The value was 30.51 ± 0.88 g.

Question: And the “Body Weight (g) Day 14” value (2000 mg/kg single oral dose)?
Answer: The value was 31.43 ± 1.09 g.

Question: And the Mortality (2000 mg/kg single oral dose)?
Answer: Its Mortality is 0/6.
